Assay results reported in patent publication US20250113825A1 (priority 2022, published 2025).

Tests used:
[1] = tested on: Pyricularia oryzae causing neck blast; assay: whole plant or invertebrate; format: in vivo; conditions: for Observed efficacy of stobilurin fungicide (%): Table 5(a), Picoxystrobin 67.8 g a.i./ha, Trifloxystrobin 100 g a.i./ha alone
rice neck blast fungi = format: in vivo, Pyricularia oryzae; conditions: Prothioconazole 120 gai/ha alone or with Azoxystrobin 280, Picoxystrobin 67, Trifloxystrobin 100 gai/ha

Q: For CC(C)OC(=O)C(C(=O)OC(C)C)=C1SCCS1 [Isoprothiolane], which “Observed efficacy of isoprothiolane (%)” value ([1]; Table 5(b), Isoprothiolane 250 g a.i./ha alone) is on record?
A: 48%

Q: Which “Observed efficacy of stobilurin fungicide (%)” value [1] does the source give for CO/C=C(/C(=O)OC)c1ccccc1COc1cccc(C(F)(F)F)n1 [Picoxystrobin] here?
A: 42%

Q: What does the source list for OC(Cc1ccccc1Cl)(Cn1nc[nH]c1=S)C1(Cl)CC1 (centres unmarked) [Prothioconazole, 2-[2-(1-chlorocyclopropyl)-3-(2-chlorophen-yl)-2-hydroxypropyl]-2,4-dihydro-[1,2,4-]-triazole-3-thione]?
A: inhibition at 120 g/ha ([1]; Pyricularia oryzae, read-out: Observed efficacy of demethylation inhibitor fungicide (%)): 49%; % Control (rice neck blast) (rice neck blast fungi): 41.49%

Q: Which “Observed efficacy of stobilurin fungicide (%)” value [1] does the source give for CON=C(C(=O)OC)c1ccccc1CON=C(C)c1cccc(C(F)(F)F)c1 [Trifloxystrobin] here?
A: 60%
